# Reference: patent US20240062782A1, “NONLINEAR LIGHT ABSORPTION MATERIAL, RECORDING MEDIUM, METHOD FOR RECORDING INFORMATION, AND METHOD FOR READING INFORMATION” (Panasonic Intellectual Property Management Co., Ltd., priority 2021, published 2024)
# Where two headings read alike, the source gives them in different places.
# Experiments:
# Format in all cases: physicochemical
# [1] = Measurement of fluorescence internal quantum yield (absolute PL quantum yield measuring apparatus); details: for Fluorescence quantum yield Φf: in chloroform or tetrahydrofuran, excitation at one-photon absorption peak, measured 350-650 nm; for Fluorescence property: stated in words
# Excerpt: The compound A also tends to emit fluorescent light. The wavelength of fluorescent light emitted by the compound A may be 405 nm or more and 660 nm or less and, in some cases, may be 300 nm or more and 650 nm or less. The quantum yield Φf of fluorescence in the compound A may be 0.05 or more, 0.1 or more, or 0.5 or more. The upper limit of the quantum yield Φf of fluorescence of the compound A is not particularly limited and is, for example, 0.99. In the present specification, the “quantum yield” specifically means internal quantum yield. The quantum yield of fluorescence can be measured by, for example, a commercially available absolute PL quantum yield measuring apparatus.
# The compounds of Examples and Comparative Examples were measured for fluorescence internal quantum yield. The measurement sample was prepared by dissolving a compound in a chloroform (CLF) solvent or a tetrahydrofuran (THF) solvent. In the measurement, an absolute PL quantum yield measuring apparatus (C9920-02, manufactured by Hamamatsu Photonics K.K.) was used. The excitation wavelength was set to the peak wavelength of the one-photon absorption of the compound. The measurement wavelength was appropriately adjusted within a range of 350 nm or more and 650 nm or less so as not to overlap with the absorption wavelength band of the compound. As a reference, the solvent used for dissolving the compound was used. As described above, the fluorescence quantum yields of the compounds of Examples 1 and 2 and the compounds of Comparative Examples 1 and 4 to 6 were measured.
# [2] = Measurement of two-photon absorption cross-section by the Z-scan method, light of 405 nm; details: light of wavelength 405 nm; for Two-photon absorption cross-section σ: titanium sapphire pulsed laser second harmonic, 80 fs, 1 kHz
# Excerpt: The two-photon absorption cross-section of the compound A for light having a wavelength of 405 nm may be higher than 1 GM or 10 GM or more. The upper limit of the two-photon absorption cross-section of the compound A is not particularly limited and is, for example, 1000 GM. The two-photon absorption cross-section can be measured by, for example, the Z-scan method described in J. Opt. Soc. Am. B, 2003, Vol. 20, p. 529. The Z-scan method is broadly used as a method for measuring a nonlinear optical constant. In the Z-scan method, a measurement sample is moved along the irradiation direction of a laser beam near the focal point where the beam is focused. On this occasion, the change in the amount of light permeated through the measurement sample is recorded. In the Z-scan method, the power density of incident light changes depending on the position of the measurement sample. Accordingly, when the measurement sample performs nonlinear light absorption, if the measurement sample is located near the focal point of the laser beam, the amount of the transmitted light is attenuated. The two-photon absorption cross-section can be calculated by fitting the change of the amount of transmitted light to a theoretical curve predicted by the intensity of incident light, the thickness of the measurement sample, the concentration of the compound A in the measurement sample, and so on.
# The compounds of Examples and Comparative Examples were measured for the two-photon absorption cross-section for light having a wavelength of 405 nm. The measurement of the two-photon absorption cross-section was performed using the Z-scan method described in J. Opt. Soc. Am. B, 2003, Vol. 20, p. 529. As the light source for measuring the two-photon absorption cross-section, a titanium sapphire pulsed laser was used. Specifically, each sample was irradiated with the second harmonic of the titanium sapphire pulsed laser. The pulse width of the laser was 80 fs. The repetition frequency of the laser was 1 kHz. The average power of the laser was changed within a range of 0.01 mW or more and 0.08 mW or less. The light from the laser was light having a wavelength of 405 nm. […] As described above, the two-photon absorption cross-sections of the compounds of Examples 1 and 2 and the compounds of Comparative Examples 1 and 4 to 6 were measured.
# [3] = Measurement of molar absorption coefficient at 405 nm (JIS K0115:2004); details: wavelength 405 nm; compound concentration 100 to 500 mmol/L in solvent
# Excerpt: The molar absorption coefficient of the compound A for light having a wavelength of 405 nm may be 100 mol^−1·L·cm^−1 or less, 10 mol^−1·L·cm^−1 or less, 1 mol^−1·L·cm^−1 or less, or 0.1 mol^−1·L·cm^−1 or less. The lower limit of the molar absorption coefficient of the compound A is not particularly limited and is, for example, 0.00001 mol^−1·L·cm^−1. The molar absorption coefficient can be measured by, for example, a method in accordance with the provision of Japanese Industrial Standards (JIS) K0115:2004. The measurement of molar absorption coefficient uses a light source that irradiates light with a photon density to hardly cause two-photon absorption by the compound A. Furthermore, in the measurement of molar absorption coefficient, the concentration of the compound A is adjusted to 100 mmol/L or more and 500 mmol/L or less. This concentration is very high compared to the concentration in a measurement test of the molar absorption coefficient of a light absorption peak. The molar absorption coefficient can be used as an index of one-photon absorption.
# The compounds of Examples and Comparative Examples were measured for the molar absorption coefficient by a method in accordance with the provision of JIS K0115:2004. Specifically, first, as a measurement sample, a solution in which a compound was dissolved in a solvent was prepared. The concentration of the compound in the solution was appropriately adjusted within a range of 100 mmol/L or more and 500 mmol/L or less according to the absorbance at a wavelength of 405 nm of the compound as the target for measurement. Then, the absorption spectrum of the measurement sample was measured. The absorbance at a wavelength of 405 nm was read from the obtained spectrum. The molar absorption coefficient was calculated based on the concentration of the compound in the measurement sample and the optical path length of the cell used for the measurement. As described above, the molar absorption coefficients of the compounds of Examples 1 and 2 and the compounds of Comparative Examples 1 and 4 to 6 were measured.
# Solubility in chloroform = details: chloroform as solvent
# Excerpt: Unsubstituted truxene is a hydrocarbon compound that is nonpolar and has a high planarity. Unsubstituted truxene corresponds to the compound of the above formula (1) in which R^1 to R^6 are hydrogen atoms. In the present specification, the unsubstituted truxene may be simply called truxene. In truxene, […] stacking of the molecules is likely to occur, and the solubility in a solvent or resin monomer tends to be low. For example, when chloroform is used as the solvent, the solubility of truxene is about several mmol/L. When the concentration of truxene in a material is high, truxene molecules come close to each other and are assembled in various forms. Consequently, multiple new levels are formed at positions with energies lower than the lowest one-photon-allowed state of truxene itself. Accordingly, tailing of a peak derived from one-photon absorption can be verified by measuring the one-photon absorption spectrum of the material including truxene at a high concentration. In contrast, in the compound A represented by the formula (1) in which R^1 to R^6 are hydrocarbon groups, it tends to suppress the formation of assembly of compound molecules without substantially changing the size of the π C electron conjugated system of truxene. […]
# [4] = Solubility in the solvent when preparing samples for optical characteristics; details: measurement solvent; sample could not be prepared
# Description: (§1) The compounds of Examples and Comparative Examples were measured for optical characteristics by the following methods. […] Measurement of two-photon absorption cross-section
# [5] = Stability for light having a wavelength in a short wavelength region; details: short wavelength region (390-420 nm); optical characteristics could not be measured
# Description: as §1
Structure (SMILES),Fluorescence quantum yield Φf [1],Molar absorption coefficient ε [3],Two-photon absorption cross-section σ [2],also measured
"c1ccc2c(c1)Cc1c-2c2c(c3c1-c1ccccc1C3)-c1ccccc1C2 [Comparative Example 1, 10,15-dihydro-5H-diindeno[1,2-a:1′,2′-c]fluorene]",0.1,24 L/mol/cm,–,Ratio σ/ε ([2]; σ in GM over ε in mol^−1·L·cm^−1): 8; solubility (Solubility in chloroform): about several
"O=c1c2ccccc2c2c1c1c3ccccc3c(=O)c1c1c3ccccc3c(=O)c21 [Comparative Example 2, 5H-diindeno[1,2-a:1′,2′-c]fluorene-5,10,15-trione]",–,–,–,Solubility in the solvent (sample for measuring optical characteristics) [4]: low solubility
"c1ccc2c(c1)[nH]c1c2c2[nH]c3ccccc3c2c2[nH]c3ccccc3c12 [Comparative Example 3, 10,15-dihydro-5H-5,10,15-triaza-diindeno[1,2-a:1′,2′-c]fluorene]",–,–,–,Stability for light having a wavelength in a short wavelength region [5]: low stability
"C(#Cc1c(C#Cc2ccccc2)c(C#Cc2ccccc2)c(C#Cc2ccccc2)c(C#Cc2ccccc2)c1C#Cc1ccccc1)c1ccccc1 [Comparative Example 4, Hexakis(phenylethynyl)benzene]",–,2730 L/mol/cm,23000 GM,–
COc1cc(-c2ccc(-c3ccc(C(=O)c4ccc(OCCOCCOC(C)=O)c(OCCOCCOC(C)=O)c4)cc3)c(OC)c2)ccc1-c1ccc(C(=O)c2ccc(OCCOCCOC(C)=O)c(OCCOCCOC(C)=O)c2)cc1 [Comparative Example 5],0,35 L/mol/cm,570 GM,–
OC(C#Cc1ccc(N(c2ccc(C#CC(O)(c3ccccc3)c3ccccc3)cc2)c2ccc(C#CC(O)(c3ccccc3)c3ccccc3)cc2)cc1)(c1ccccc1)c1ccccc1 [Comparative Example 6],0.3,70 L/mol/cm,380 GM,–
"CC1(C)c2ccccc2-c2c1c1c(c3c2C(C)(C)c2ccccc2-3)C(C)(C)c2ccccc2-1 [Example 1, 10,15-dihydro-5,5,10,10,15,15-hexamethyl-5H-diindeno[1,2-a:1′,2′-c]fluorene]",0.1,0.04 L/mol/cm,40 GM,"Fluorescence property [1]: had a fluorescence property; solubility (Solubility in chloroform; organic solvent or mixture, read-out: Solubility): ≥ 100 mM"
"CCC1(CC)c2ccccc2-c2c1c1c(c3c2C(CC)(CC)c2ccccc2-3)C(CC)(CC)c2ccccc2-1 [Example 2, 10,15-dihydro-5,5,10,10,15,15-hexaethyl-5H-diindeno[1,2-a:1′,2′-c]fluorene]",0.1,0.08 L/mol/cm,43 GM,Fluorescence property [1]: had a fluorescence property
